In PubChem BioAssay (NCI) one finds GI50 and TGI data, which are given here for 19 molecules.

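The compound was tested at five concentrations on cells cultured in 96-well plates, with a 48-hour exposure period. GI50 marks 50% less growth. Definition used: TGI = concentration required for complete inhibition of growth.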 A value given as a limit tells only on which side of the number the result lay.

What all share (assay): growth of human tumour cells (NCI), 48 h
Assay [1] relates to NCI-H460 lung.
Assay [2] has as its system ACHN renal.
The test system of assay [3] is OVCAR-3 ovarian.
The test system of assay [4] is HCC-2998 colon.
In assay [5] the test system is SF-539 CNS.
Assay [6] deals with KM12 colon.
The subject of assay [7] is NCI-H23 lung.
Assay [8] concerns UO-31 renal.
Assay [9] deals with COLO 205 colon.
The test system of assay [10] is A498 renal.

Regarding `NCCCn1c2c(c3ccccc3c1=O)C(=O)c1cc3c(cc1-2)OCO3`, the GI50 in assay [1] is 54.7 nM; in assay [2] it was 61 nM; in [3], 0.766 µM; in assay [4] it was under 0.01 µM; in [5] it was 242 nM; in [6], 311 nM. Further, the figures for the GI50 in [7], in [8] and in [9] were 324 nM, 0.265 µM and 0.121 µM, respectively. Also, the TGI in assay [1] is 12.6 µM; in assay [2], 0.295 µM; in assay [3], 3.85 µM; in [4], 1.11 µM; in [5], 1.31 µM; in assay [6], 2.82 µM. The TGI is 1.38 µM in assay [7], 1.99 µM in assay [8] and 1.98 µM in assay [9].
As to `O=NN(CCCl)C(=O)NCc1ccc[n+]([O-])c1`, the TGI in [1], in assay [2], in assay [3], in assay [4], in [5] and in assay [6] was over 100 µM throughout. The TGI in assay [7] and in assay [9] was over 100 µM each time.
As for `O=C1CCCSCCCC(=O)CCCSCCC1`, the TGI in assay [1], in assay [3], in assay [4], in [5], in assay [6] and in assay [7] was over 100 µM throughout. The TGI in assay [8] and in assay [9] was over 100 µM each time.
`CN(OC(=O)CC(=O)c1ccccc1)C(=O)Cc1ccccc1`: the TGI in assay [1], in [2], in assay [3], in assay [5], in assay [6] and in assay [7] was over 100 µM each time. Further, the TGI in [10], in assay [8] and in assay [9] was over 100 µM each time.
Regarding `Nc1nc(SCC(=O)O)[nH]c(=O)c1N`, the TGI in assay [1], in assay [2], in [3], in assay [5], in assay [6] and in [7] was over 100 µM each time. Moreover, the TGI in assay [10], in assay [8] and in [9] was over 100 µM each time.
With `COc1cccc(/C=C\c2cc(OC)c(OC)c(OC)c2)c1`, the TGI is over 100 µM in assay [1]; over 100 µM in assay [2]; 79.1 µM in [3]; 69.5 µM in assay [4]; over 100 µM in assay [5]; over 100 µM in assay [6]. The TGI in [7] is 9.4 µM; in assay [8], 33 µM; in assay [9], 17.3 µM.
For the molecule `O=C1C2c3[nH]c4ccccc4c3C3CCSCC3C2C(=O)N1c1ccccc1` (configuration not stated), the TGI in assay [1], in assay [2], in assay [3], in assay [5], in [6] and in [7] was over 100 µM throughout. Further, the TGI in assay [10], in assay [8] and in assay [9] was over 100 µM throughout.
For `O=C(O)C1CCCN1Cc1c[nH]c2ccccc12` (configuration not stated), the TGI in assay [1], in assay [2], in assay [3], in [5], in [6] and in assay [7] was over 100 µM each time. For the same molecule, the TGI in assay [10], in [8] and in [9] was over 100 µM throughout.
For `CCN(CC)c1ccc2[nH]c3c(C(N)=O)cc(=O)c(=O)c=3oc2c1`, the GI50 in [1] is 1340 nM; in [2], 1840 nM; in assay [3], 0.68 µM; in [5], 597 nM; in [6], 2940 nM; in [7], 1400 nM. For the same molecule, the GI50 was 1920 nM in assay [10], 1.07 µM in assay [8] and 3.09 µM in assay [9]. Besides, the TGI in [1] was 12.6 µM; in assay [2] it was over 100 µM; in assay [3], 4.3 µM; in [5], 14.1 µM; in assay [6], 11.3 µM; in assay [7], 5.17 µM. Moreover, the values for the TGI in assay [10], in [8] and in assay [9] were 9.28 µM, 4.12 µM and 11.3 µM, respectively.
Consider `COc1cc2c3c(n(CCCO)c(=O)c2cc1OC)-c1cc2c(cc1C3=O)OCO2`, for which the GI50 was 845 nM in assay [1]; 1650 nM in assay [2]; 21.6 µM in [3]; 27700 nM in [6]; 6750 nM in assay [7]; 42800 nM in assay [10]. Further, the GI50 in [8] is over 21.2 µM; in [9], 26.4 µM. Further, the TGI in [1] was over 100 µM; in assay [2] it was 9.83 µM; in assay [3], over 81.9 µM; in assay [5] it was 6.79 µM; in [6], over 100 µM; in assay [7] it was 28.3 µM. Moreover, the results for the TGI in assay [10], in [8] and in assay [9] were over 73 µM, over 100 µM and 98 µM, respectively.
For `CCCOP1(=O)C=C(C)C(Cl)=C(C)C1` (configuration not stated), the TGI was over 100 µM in [1]; 52.5 µM in [2]; 70.3 µM in assay [3]; over 100 µM in assay [4]; 63.8 µM in assay [5]; 43 µM in assay [6]. For the same molecule, the TGI in assay [7] is 37 µM; in assay [8], over 100 µM; in assay [9], 24.4 µM.
With `O=C(c1ccccc1)c1ccc2cccc(O)c2n1`, the TGI in assay [2], in assay [3], in assay [4], in assay [5], in assay [6] and in [7] was over 100 µM in each case. Moreover, the TGI in assay [8] and in assay [9] was over 100 µM in each case.
Take `CC(=O)CC(=O)CCCC(=O)Nc1ccc(Cl)cc1Cl`: the TGI in assay [1], in [2], in assay [3], in assay [4], in assay [5] and in assay [6] was over 100 µM each time. Besides, the TGI in assay [7], in [8] and in [9] was over 100 µM throughout.
With `Cc1c2[nH]c3ccc(Br)cc3c2c(C)c2[nH]ccc(=O)c12`, the TGI in assay [1] is 23.1 µM; in assay [2], 22.5 µM; in assay [3], 32.2 µM; in assay [4], 31.1 µM; in [5] it was 32 µM; in assay [6], 25.6 µM. In addition, the TGI in [7] came to 37.8 µM; in assay [8], 24.2 µM; in assay [9], 27.1 µM.
As to `COC(=O)C/C(C)=C/[C@@H](O)[C@H]1O[C@@H]2CC/C(Cl)=C/C/C=C(/C)[C@H](OC(C)=O)CC(=O)O[C@@H]1C2`, the GI50 was 367 nM in [1]; 1160 nM in assay [2]; 1320 nM in assay [5]; 2640 nM in [6]; 1140 nM in assay [7]; 1.85 µM in assay [8]. In addition, in assay [9], the GI50 is 1.72 µM. For the same molecule, the TGI was 13.8 µM in assay [1]; 4.51 µM in [2]; 7.95 µM in assay [5]; 9.63 µM in assay [6]; 7.74 µM in [7]; over 25 µM in assay [8]. For the same molecule, the TGI in [9] came out at 7.51 µM.
Regarding `O=C(Nc1cccc(C2=NCCN2)c1)c1ccc(OCCCOc2ccc(C(=O)Nc3cccc(C4=NCCN4)c3)cc2)cc1`, the GI50 in assay [2] is 21800 nM; in [10] it was 2300 nM; in [8] it was 13.5 µM. The TGI in assay [2] was over 100 µM; in assay [10], 8.37 µM; in assay [8] it was over 100 µM.
As to `N#Cc1c2ccccc2c2nnc3cc(C(F)(F)F)ccc3n12`, the GI50 in assay [1] is 37100 nM; in [2] it was 25700 nM; in assay [3] it was 79.9 µM; in assay [6] it was over 100000 nM; in assay [8] it was 70.3 µM; in [9], 37.4 µM. Moreover, the TGI in assay [1], in [2], in assay [3], in assay [6], in assay [8] and in [9] was over 100 µM in each case.
With `Cc1cc(S(=O)(=O)Nc2nnc(-c3ccco3)c(-c3ccco3)n2)c(SCc2ccccc2)cc1Cl`, the GI50 is 31600 nM in [1]; 20200 nM in [2]; 26.2 µM in assay [3]; 20.4 µM in [4]; 19900 nM in [5]; 27800 nM in [6]. The results for the GI50 in assay [7], in assay [8] and in assay [9] were 22800 nM, 21.7 µM and 26.1 µM, respectively. For the same molecule, the TGI in [1] is 83.5 µM; in assay [2] it was 41.9 µM; in assay [3], 50.9 µM; in assay [4], 36.8 µM; in [5], 41.1 µM; in assay [6] it was over 100 µM. Moreover, the TGI in assay [7] is 46.9 µM; in assay [8] it was 50.4 µM; in assay [9], 56.3 µM.
As to `CC1(c2ccccc2)CC12C(=O)NC(=O)NC2=O` (configuration not stated), the TGI in assay [2], in assay [3], in assay [4], in assay [5], in [6] and in [7] was over 100 µM each time. Also, the TGI in assay [8] and in [9] was over 100 µM each time.
